What was measured:
various FGFRs = test: additional SPA assays, FGF ligands to various FGFRs; type: binding
FGFR2^∂123 = target: T1, FGFR2^∂123 (Homo sapiens, UniProt P21802); test: anisotropy measurement, FGF1-lumio binding to FGFR2 ECD without Fc-tag; conditions: >1,000 fold molar excess of SSR; FGF1-lumio 1 μM
T1 construct: we purified the entire extracellular domain of FGFR2 without Fc-tag (FGFR2^∂123); made in house
Experimental: To assess whether SSR inhibits the binding of FGF1 to its binding pocket, we purified the entire extracellular domain of FGFR2 without Fc-tag (FGFR2^∂123) and measured the tumbling speed (as a parameter of anisotropy) of a fluorescent lumio-tagged FGF1 (FGF1-lumio; constant concentration of 1 μM) in the presence of varying concentrations of FGFR2^∂123 without (blue) or with (red) SSR (1 mM). When FGFR2^∂123 was added to FGF1-lumio, the tumbling speed of the ligand/receptor complex was slower than of FGF-lumio alone, because of its larger size.
One hallmark of allosteric interactions is the phenomenon of ‘probe-dependence’ i.e., variations in the magnitude and direction of an allosteric interaction depending on the nature of the orthosteric ligand-receptor complex with which the modulator is interacting (May et al., 2007). To determine whether the effects of SSR on ^125I-FGF2 binding in the SPA were dependent on the configuration of the engineered FGFR/Fc fusion protein plated on an artificial substrate, we next studied whether SSR inhibited the binding of a fluorescent lumio-tagged FGF1 (FGF1-lumio) to a purified ECD of FGFR2 without the Fc-tag (FGFR2^∂123), by measuring the tumbling speed as a parameter of anisotropy. When FGFR2^∂123 was added to FGF1-lumio, the tumbling speed of the ligand/receptor complex was slower than of FGF-lumio alone because of its larger size. […]

HUVEC = HUVEC chemotactic migration; type: cell-based, human; conditions: FGFR1-driven
Experimental: Confluent HUVEC cells are harvested and resuspended in RPMI 1640 (Invitrogen, 32404-014) without FCS, 2 mM glutamine, MEM non-essential amino-acid 1× (Gibco, 11140-035), MEM sodium pyruvate 1× (Gibco, 11360-039) at 0.8 10^6 cells/ml. 250 μl of cell solution is distributed with 4×SSR in the upper chamber of 24-wells BD Biocoat Angiogenesis System for endothelial cell migration (BD Biocoat, 354144) and 750 μl of medium in the lower chamber with FGF2 (R&D, 234-FSE-025), FGF4 (R&D, 235-F4-025) or FGF-19 (in house produced) at 67 ng/ml. Plates are incubated 22 h at 37° C. in a CO2 chamber. Then, plate insert is removed, and placed in a new 24-wells plate (Falcon, 353504) that contains 500 μL of calcein (Molecular probes, C-3100) for 90 min. Then migrated cells are fluorescent and migration is measured by a […] with downstairs reading following 485 nm excitation and 535 nm emission.

PANC02 cells = test: PANC02 migration; type: cell-based; conditions: 100 nM SSR; 100 ng/ml FGF7 with or without VEGF; FGFR2-IIIb
Experimental: Cell proliferation was analysed on exponentially growing cells that were starved for 16 hours in 100 μl RPMI 1640 (Invitrogen, 32404-014) with 0.2% FBS (Hyclone, SH30070.03), 2 mM glutamine, MEM non-essential amino-acid 1× (Gibco, 11140-035), MEM sodium pyruvate 1× (Gibco, 11360-039) and seeded at 4,000 cells/well in 96-well microplates. After exposure to mitogens and/or SSR for 72 hours, cell proliferation was assessed with the use of the CellTiter 96 AQueous One Solution Cell Proliferation Assay (Promega, Madison, Wis., USA) according to manufacturer's instructions. Cell migration was assessed by a modified Boyden chamber assay, by using 24-well inserts containing 8 μm pore size transwell permeable supports with a polycarbonate membrane (Costar, Corning Inc.). Exponentially growing cells were starved in 0.2% FBS containing medium for 16 hours and resuspended at 5×10^5 cells/ml in the same low serum medium. 100 μl of the cell suspension were seeded in the upper chamber, while chemoattractants and/or SSR were placed in the lower chamber. 10% FBS containing medium was used a positive control. After 6 hours incubation at 37° C., cells on the upper side of the membrane were scraped using a cotton swab, while migrated cells on the lower surface were fixed with 4% formaldehyde and nuclei stained with DAPI for quantification.

T1 sequence (P21802 22-377 limits assumed): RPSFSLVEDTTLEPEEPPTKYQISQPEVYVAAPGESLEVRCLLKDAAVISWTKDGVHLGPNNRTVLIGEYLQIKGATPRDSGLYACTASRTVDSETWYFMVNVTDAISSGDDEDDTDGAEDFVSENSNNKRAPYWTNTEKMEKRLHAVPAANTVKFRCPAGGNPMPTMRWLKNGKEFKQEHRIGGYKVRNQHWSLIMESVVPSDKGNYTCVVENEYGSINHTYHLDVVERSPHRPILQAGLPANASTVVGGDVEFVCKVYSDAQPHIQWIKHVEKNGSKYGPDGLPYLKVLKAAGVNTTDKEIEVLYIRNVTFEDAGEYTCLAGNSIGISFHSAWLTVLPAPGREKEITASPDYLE

## COc1c(C)c(C(=O)c2ccc(N)c(C(=O)[O-])c2)n2ccccc12.[Na+] [SSR]
Various FGFRs
  binding of different FGF ligands to various FGFRs: blocking the binding of different FGF ligands to various FGFRs
FGFR2^∂123
  tumbling speed (anisotropy) of FGF1-lumio/FGFR2^∂123 complex: failed to alter the tumbling speed of the complex
HUVEC
  FGF2-induced HUVEC chemotactic migration: reduction of FGF2-induced HUVEC chemotactic migration
PANC02 cells
  FGF7-induced PANC02 migration: blocked

Source: US9234025B2, “Extracellular allosteric inhibitor binding domain from a tyrosine kinase receptor” (SANOFI, priority 2009, dated 2016)
